From patent US20060165803A1, “Pharmaceutical compositions of sertaconazole for vaginal use” (priority 2002, published 2006)

What was measured:
C. albicans [1] = conditions: C. albicans (73); cited from earlier work
C. tropicalis = C. tropicalis (21); cited from earlier work
C. glabrata = C. glabrata (16); cited from earlier work
C. parapsilosis = C. parapsilosis (22); cited from earlier work
C. krusei = C. krusei (13); cited from earlier work
C. guillermondii = C. guillermondii (5); cited from earlier work
[2] = tested on: reconstituted vaginal epithelial cells; assay: In vitro permeation test through reconstituted vaginal epithelium, Franz cell; assay type: in vitro ADME; conditions: reconstituted human vaginal epithelium, phosphate buffer pH 7.4, 32° C.
Method: The in vitro dissolution and transdermal permeation tests of sertaconazole nitrate from the cream formulations of Example 1 were evaluated in comparison with a conventional cream formulation of 2% sertaconazole nitrate.
Both tests were carried out with Franz cell-type diffusion systems, with a diffusional area of 2.54 cm^2. 1 ml of cream was placed in the donor compartment and 11 ml of a suitable receptor medium were placed in the receptor compartment. For the dissolution test, a 0.45-μm Millipore membrane of nylon esters was used, and the receptor medium was made up of a mixture of ethanol-water (1:1). Vaginal epithelium was used as permeation membrane and phosphate buffer solution at pH 7.4 was used as the receptor medium.
The 4-cm^2 membranes used in the permeation test were formed by reconstituted vaginal epithelial cells (5-day culture) from transformed cells of human vaginal epithelium on polycarbonate support. These cells were obtained from cell lines of vulvar epidermoid carcinomas. The test temperature was 32° C. for both cases.

C. albicans [3] = conditions: against C. albicans; cited from earlier work

In the case of `c1ccc(-c2ccc(C(c3ccccc3)n3ccnc3)cc2)cc1` (centres unmarked) [Bifonazole, bifonazole], the “minimum inhibitory concentration (MIC)” value (C. albicans [1]) is given as 3.6, the “minimum inhibitory concentration (MIC)” value (C. tropicalis) is given as 9.51 and the “minimum inhibitory concentration (MIC)” value (C. glabrata) is given as 4.09. The “minimum inhibitory concentration (MIC)” value (C. parapsilosis) was 3.76, the “minimum inhibitory concentration (MIC)” value (C. krusei) was 2.20 and the “minimum inhibitory concentration (MIC)” value (C. guillermondii) was 3.87.

For `Clc1ccc(COC(Cn2ccnc2)c2ccc(Cl)cc2Cl)cc1` (centres unmarked) [Econazole, econazole], the “minimum inhibitory concentration (MIC)” value (C. albicans [1]) is listed as 2.24, the “minimum inhibitory concentration (MIC)” value (C. tropicalis) is listed as 3.14 and the “minimum inhibitory concentration (MIC)” value (C. glabrata) is listed as 2.39. The “minimum inhibitory concentration (MIC)” value (C. parapsilosis) was 0.75, the “minimum inhibitory concentration (MIC)” value (C. krusei) was 0.91 and the “minimum inhibitory concentration (MIC)” value (C. guillermondii) was 1.11.

In the case of `Clc1ccc(C(Cn2ccnc2)OCc2csc3c(Cl)cccc23)c(Cl)c1` (centres unmarked) [Sertaconazole, sertaconazole], the “absorption (permeation) through the vaginal mucosa” value [2] is given as “less than 0.1 % of the dose”, the “minimum inhibitory concentration (MIC)” value (C. albicans [1]) is given as 1.02 and the “minimum inhibitory concentration (MIC)” value (C. tropicalis) is given as 1.67. The “minimum inhibitory concentration (MIC)” value (C. glabrata) was 0.78, the “minimum inhibitory concentration (MIC)” value (C. parapsilosis) was 0.31 and the “minimum inhibitory concentration (MIC)” value (C. krusei) was 0.38. For the same compound, the “minimum inhibitory concentration (MIC)” value (C. guillermondii) was 0.51 and the “fungicide activity compared with imidazole antifungal drugs” value (C. albicans [3]) was “superior to most imidazole antifungal drugs”.
